In PMC6270304, “Synthesis, Structure and Cytotoxic Activity of New Acetylenic Derivatives of Betulin” (Molecules, 2013):
≈ marks a conversion by molar mass, not a printed value.

Columns and labels:
[1] = tested on: CCRF/CEM (human leukemia); assay: Antiproliferative assay in vitro (MTT); assay type: cell-based; details: for IC50: Homo sapiens, CCRF-CEM, read-out: Cytotoxic activity IC50, Human CCRF/CEM
Method: (§1) Cytotoxic activities of all newly synthesized compounds including betulin (1) were tested in SRB or MTT (in the case of leukemia cells) assay for their antiproliferative activity in vitro against three human cancer cell lines: SW707 (colorectal adenocarcinoma), CCRF/CEM (leukemia), T47D (breast cancer), and murine leukemia P388 as well as Balb3T3 normal fibroblasts cell lines. […] A value of less than 4 μg/mL was considered as an antiproliferative activity criterion for synthetic compounds [31].
(§2) The following established in vitro cell lines were applied: SW707 (human colorectal adenocarcinoma), CCRF/CEM (human leukemia), T47D (human breast cancer), P388 (mouse leukemia) and Balb3T3 (normal mouse fibroblasts). All lines were obtained from the American Type Culture Collection (Rockville, MD, USA) and maintained at the Cell Culture Collection of the Institute of Immunology and Experimental Therapy (Wroclaw, Poland).
(§3) Twenty-four hours before addition of the tested agents, the cells were plated in 96-well plates (Sarstedt, Numbrecht, Germany) at a density of 10^4 cells per well in 100 μL of culture medium. The cells were cultured in the opti-MEM medium supplemented with 2 mM glutamine (Gibco, Grand Island, NY, USA), streptomycin (50 μg/mL), penicillin (50 U/mL) (both antibiotics from Polfa, Tarchomin, Poland) and 5% fetal calf serum (Gibco). The cell cultures were maintained at 37 °C in humid atmosphere saturated with 5% CO2.
(§4) The compounds were dissolved in DMSO and culture medium (1:9) to the concentration of 1 mg/mL, and subsequently diluted in culture medium to reach the required concentrations (ranging from […]).
(§5) The in vitro cytotoxic effect of all agents was examined using the SRB assay for adherent cells and MTT assay for leukemia cells as described by Wietrzyk et al.. Each compound in given concentration was tested in triplicates in each experiment, which was repeated 3–5 times.

P388 (mouse leukemia) = assay: Antiproliferative assay in vitro (MTT); assay type: cell-based; details: for IC50: Mus musculus, P388, read-out: Cytotoxic activity IC50, Murine P388
Method: as §1, §2, §3, §4, §5

[2] = tested on: Balb3T3 (normal mouse fibroblasts); assay: Antiproliferative assay in vitro (SRB); assay type: cell-based
Method: as §1, §2, §3, §4, §5

[3] = tested on: SW707 (human colorectal adenocarcinoma); assay: Antiproliferative assay in vitro (SRB); assay type: cell-based; details: for IC50: Homo sapiens, SW707, read-out: Cytotoxic activity IC50, Human SW707
Method: as §1, §2, §3, §4, §5

[4] = tested on: T47D (human breast cancer); assay: Antiproliferative assay in vitro (SRB); assay type: cell-based; details: for IC50: Homo sapiens, T47D, read-out: Cytotoxic activity IC50, Human T47D
Method: as §1, §2, §3, §4, §5

[5] = tested on: investigated cancer cell lines (T47D, CCRF/CEM, SW707, P388, Balb3T3); assay: cells; assay type: cell-based, human and murine
Method: as §1, §2, §3, §4, §5

SMILES	Cytotoxic activity IC50, Human CCRF/CEM [1]	IC50 (P388 (mouse leukemia)) [µg/mL]	Cytotoxic activity IC50, Murine Balb3T3 [2]	IC50 [3] [µg/mL]	IC50 [4] [µg/mL]	melting point [°C]	IC50 [1] [µg/mL]	cytotoxicity relative to betulin (1) [5]	Cytotoxic activity IC50, Murine P388 (P388 (mouse leukemia))	Cytotoxic activity IC50, Human SW707 [3]	Cytotoxic activity IC50, Human T47D [4]	ID50 value against human leukemia (CCRF/CEM) cell line ([1]; CCRF/CEM, abstract wording) [µg/mL]	selectivity index (SI) ([1]; ratio IC50 of normal fibroblast (Balb3T3) / IC50 on CCRF/CEM)
C=C(C)C1CC[C@]2(COC(=O)CC)CC[C@]3(C)C(CCC4[C@@]5(C)CC[C@H](OC(=O)CC)C(C)(C)C5CC[C@]43C)C12 (stereo partly drawn) [Compound 6c, 3,28-O,O'-Dipropanoylbetulin]	Neg	68.1 ± 14.8 (≈ 123 µM)	Neg	42.3 ± 9.4 (≈ 76.2 µM)	26.6 ± 6.8 (≈ 47.9 µM)	142 to 144							
C#CCOC(=O)OC[C@]12CCC(C(=C)C)C1C1CCC3[C@@]4(C)CC[C@H](O)C(C)(C)C4CC[C@@]3(C)[C@]1(C)CC2 (stereo partly drawn) [Compound 3a, 28-O-Propargyloxycarbonylbetulin]		2.9 ± 0.2 (≈ 5.53 µM)		9.2 ± 7.1 (≈ 17.5 µM)	7.2 ± 1.7 (≈ 13.7 µM)		3.2 ± 0.4 (≈ 6.1 µM)	three to four times more cytotoxic than betulin					
C=C(C)C1CC[C@]2(COC(=O)CC)CC[C@]3(C)C(CCC4[C@@]5(C)CC[C@H](O)C(C)(C)C5CC[C@]43C)C12 (stereo partly drawn) [Compound 5c, 28-O-Propanoylbetulin]		3.3 ± 0.8 (≈ 6.62 µM)		29.2 ± 24.4 (≈ 58.5 µM)	12.1 ± 4.4 (≈ 24.3 µM)	160 to 162	8.1 ± 0.9 (≈ 16.2 µM)						
C#CCCOC(=O)OC[C@]12CCC(C(=C)C)C1C1CCC3[C@@]4(C)CC[C@H](OC(=O)OCCC#C)C(C)(C)C4CC[C@@]3(C)[C@]1(C)CC2 (stereo partly drawn) [Compound 4b, 3,28-O,O'-Di(3-butynyloxycarbonyl)betulin]	Neg		Neg			140 to 142			Neg	Neg	Neg		
C#CC(=O)OCC12CCC(C(=C)C)C1C1CCC3C4(C)CCC(O)C(C)(C)C4CCC3(C)C1(C)CC2 (stereo not drawn) [Compound 5a, 28-O-Propynoylbetulin]		0.4 ± 0.1 (≈ 0.808 µM)		14.9 ± 3.3 (≈ 30.1 µM)	9.1 ± 1.9 (≈ 18.4 µM)		0.02 ± 0.001 (≈ 0.0404 µM)					0.02 (≈ 0.0404 µM)	15
C#CCCOC(=O)OC[C@]12CCC(C(=C)C)C1C1CCC3[C@@]4(C)CC[C@H](O)C(C)(C)C4CC[C@@]3(C)[C@]1(C)CC2 (stereo partly drawn) [Compound 3b, 28-O-(3-Butynyloxycarbonyl)betulin]		3.6 ± 1.3 (≈ 6.68 µM)		22.6 ± 11.9 (≈ 41.9 µM)	6.9 ± 2.3 (≈ 12.8 µM)	86 to 88	5.2 ± 1.4 (≈ 9.65 µM)						
C=C(C)C1CC[C@]2(COC(C)=O)CC[C@]3(C)C(CCC4[C@@]5(C)CC[C@H](OC(=O)OCC#CC)C(C)(C)C5CC[C@]43C)C12 (stereo partly drawn) [Compound 8c, 28-O-Acetyl-3-O'-(2-butynyloxycarbonyl)betulin]	Neg		Neg			126 to 129			Neg	Neg	Neg		
C=C(C)[C@@H]1CC[C@]2(COC(C)=O)CC[C@]3(C)[C@H](CC[C@@H]4[C@@]5(C)CC[C@H](O)C(C)(C)[C@@H]5CC[C@]43C)[C@@H]12 [Compound 7a, 28-O-acetylbetulin]		12.5 ± 14.7 (≈ 25.8 µM)		5.1 ± 2.5 (≈ 10.5 µM)	4.9 ± 0.6 (≈ 10.1 µM)		3.4 ± 0.3 (≈ 7.01 µM)						
C#CCCOC(=O)O[C@H]1CC[C@@]2(C)C(CC[C@]3(C)C2CCC2C4C(C(=C)C)CC[C@]4(COC(C)=O)CC[C@]23C)C1(C)C (stereo partly drawn) [Compound 8b, 28-O-Acetyl-3-O'-(3-butynyloxycarbonyl)betulin]	Neg	46.7 ± 16.2 (≈ 80.4 µM)	Neg			118 to 121				Neg	Neg		
C=C(C)C1CC[C@]2(COC(=O)OCC)CC[C@]3(C)C(CCC4[C@@]5(C)CC[C@H](O)C(C)(C)C5CC[C@]43C)C12 (stereo partly drawn) [Compound 3d, 28-O-Ethoxycarbonylbetulin]		3.8 ± 1.9 (≈ 7.38 µM)		20.8 ± 14.7 (≈ 40.4 µM)	6.6 ± 1.3 (≈ 12.8 µM)	94 to 96	4.1 ± 0.2 (≈ 7.96 µM)						
C=C(C)C1CC[C@]2(COC(=O)OCC#CC)CC[C@]3(C)C(CCC4[C@@]5(C)CC[C@H](OC(=O)OCC#CC)C(C)(C)C5CC[C@]43C)C12 (stereo partly drawn) [Compound 4c, 3,28-O,O'-Di(2-butynyloxycarbonyl)betulin]	Neg	50.4 ± 31.1 (≈ 79.4 µM)	Neg			70 to 73				Neg	Neg		
C=C(C)C1CC[C@]2(COC(=O)OCC#CC)CC[C@]3(C)C(CCC4[C@@]5(C)CC[C@H](O)C(C)(C)C5CC[C@]43C)C12 (stereo partly drawn) [Compound 3c, 28-O-(2-Butynyloxycarbonyl)betulin]		5.5 ± 2.8 (≈ 10.2 µM)		36.9 ± 6.3 (≈ 68.5 µM)	20.1 ± 5.3 (≈ 37.3 µM)	112 to 114	6.8 ± 2.9 (≈ 12.6 µM)						
C=C(C)C1CC[C@]2(COC(C)=O)CC[C@]3(C)C(CCC4[C@@]5(C)CC[C@H](OC(C)=O)C(C)(C)C5CC[C@]43C)C12 (stereo partly drawn) [Compound 7b, 3,28-O,O'-diacetylbetulin]		40.2 ± 5 (≈ 76.3 µM)	Neg				34.1 ± 6.4 (≈ 64.7 µM)			Neg	Neg		
C#CCOC(=O)OC[C@]12CCC(C(=C)C)C1C1CCC3[C@@]4(C)CC[C@H](OC(=O)OCC#C)C(C)(C)C4CC[C@@]3(C)[C@]1(C)CC2 (stereo partly drawn) [Compound 4a, 3,28-O,O'-Di(propargyloxycarbonyl)betulin]	Neg	33.4 ± 1.7 (≈ 55 µM)	Neg			125 to 127				Neg	Neg		
C=C(C)C1CC[C@]2(COC(C)=O)CC[C@]3(C)C(CCC4[C@@]5(C)CC[C@H](OC(=O)OCC)C(C)(C)C5CC[C@]43C)C12 (stereo partly drawn) [Compound 8d, 28-O-Acetyl-3-O'-(ethoxycarbonyl)betulin]	Neg		Neg			200 to 202			Neg	Neg	Neg		
C=C(C)C1CC[C@]2(COC(=O)OCC)CC[C@]3(C)C(CCC4[C@@]5(C)CC[C@H](OC(=O)OCC)C(C)(C)C5CC[C@]43C)C12 (stereo partly drawn) [Compound 4d, 3,28-O,O'-Di(ethoxycarbonyl)betulin]		46.8 ± 21.6 (≈ 79.7 µM)	Neg		69.1 ± 12.4 (≈ 118 µM)	84 to 86	52.6 ± 8.3 (≈ 89.6 µM)			Neg			
C#CCOC(=O)O[C@H]1CC[C@@]2(C)C(CC[C@]3(C)C2CCC2C4C(C(=C)C)CC[C@]4(COC(C)=O)CC[C@]23C)C1(C)C (stereo partly drawn) [Compound 8a, 28-O-Acetyl-3-O'-propargyloxycarbonylbetulin]	Neg		Neg			188 to 189			Neg	Neg	Neg		
C#CC(=O)OC[C@]12CCC(C(=C)C)C1C1CCC3[C@@]4(C)CC[C@H](OC(=O)C#C)C(C)(C)C4CC[C@@]3(C)[C@]1(C)CC2 (stereo partly drawn) [Compound 6a, 3,28-O,O'-Dipropynoylbetulin]		31.9 ± 1.4 (≈ 58.3 µM)		9.5 ± 1.9 (≈ 17.4 µM)	16.2 ± 4.3 (≈ 29.6 µM)	102 to 104	9.9 ± 7 (≈ 18.1 µM)						
